Results published in patent publication US20260184675A1, “CHIRAL ISOMERIC SULFITE COMPOUND AND APPLICATION THEREOF” (Chengdu Hanova BioSciences Co., Ltd, priority 2024, published 2026).

Legend:
Format in all cases: in vivo
[1] = tested on: eggs of Panonychus citri; test: Effect on hatching of eggs of Panonychus citri, leaf disc method; conditions: 1 ppm; for Hatching rate (%), Replicate 1 / Hatching rate (%), Replicate 2 / Hatching rate (%), Replicate 3 / Number of hatched larvae 5 days after insecticide delivery, Replicate 1 / Number of hatched larvae 5 days after insecticide delivery, Replicate 2 / Number of hatched larvae 5 days after insecticide delivery, Replicate 3: Panonychus citri eggs; for Hatching rate (%), Replicate 1 / Hatching rate (%), Replicate 2 / Hatching rate (%), Replicate 3: 5 days after delivery; for Number of hatched larvae 5 days after insecticide delivery, Replicate 1 / Number of hatched larvae 5 days after insecticide delivery, Replicate 2 / Number of hatched larvae 5 days after insecticide delivery, Replicate 3: leaf disc
[2] = tested on: pest eggs of Tetranychus cinnabarinus; test: Effect on hatching of pest eggs of Tetranychus cinnabarinus, leaf disc method; conditions: for Hatching rate (%): 7 days after insecticide delivery; for inhibitory effect on the hatching of pest eggs of Tetranychus cinnabarinus (in words): 1 ppm
Procedure, shortened: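 Adult female mites laid eggs on 2.0 cm Vicia faba leaf discs for up to 36 h; discs with counted eggs were dipped 10 s in compound solution or water, then kept moist. Hatched eggs were counted 7 days after treatment and control effect was calculated by formula.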

[3] = tested on: eggs of Tetranychus urticae; test: Effect on hatching of eggs of Tetranychus urticae, leaf disc method; conditions: 5 ppm; for Hatching rate (%): 5 days after insecticide delivery
Procedure, shortened: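 This leaf disc test measured inhibition of Tetranychus urticae egg hatching. Eggs laid on Vicia faba discs were counted microscopically, and the discs were soaked for 10 seconds in compound at 5 ppm, with clear water as control. They were incubated under controlled temperature and humidity with strong indirect light, avoiding condensate. Hatched eggs, leaf damage and developmental abnormalities were recorded five days after delivery.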

[4] = Replicate 1, listed as 19-(S, S)
[5] = Replicate 2, listed as 19-(S, S)
[6] = Replicate 1, listed as 19′-(R, R)
[7] = Replicate 2, listed as 19′-(R, R)
[8] = Replicate 1, listed as 19′-(S, R)
[9] = Replicate 2, listed as 19′-(S, R)

Structure (SMILES)	inhibitory effect on the hatching of eggs of Panonychus citri (in words) [1]	Hatching rate (%), Replicate 1 [1]	Hatching rate (%), Replicate 2 [1]	Hatching rate (%), Replicate 3 [1]	Number of hatched larvae 5 days after insecticide delivery, Replicate 1 [1]	Number of hatched larvae 5 days after insecticide delivery, Replicate 2 [1]	Number of hatched larvae 5 days after insecticide delivery, Replicate 3 [1]	Hatching rate (%) ([2]; 0.25 mg/L, Replicate 1)	Hatching rate (%) ([2]; 0.25 mg/L, Replicate 2)	Number of hatched larvae 7 days after insecticide delivery ([2]; 0.25 mg/L, Replicate 1)	Number of hatched larvae 7 days after insecticide delivery ([2]; 0.25 mg/L, Replicate 2)	Hatching rate (%) ([2]; 0.5 mg/L, Replicate 1)	Hatching rate (%) ([2]; 0.5 mg/L, Replicate 2)	Number of hatched larvae 7 days after insecticide delivery ([2]; 0.5 mg/L, Replicate 1)	Number of hatched larvae 7 days after insecticide delivery ([2]; 0.5 mg/L, Replicate 2)	Hatching rate (%) ([2]; 1 mg/L, Replicate 1)	Hatching rate (%) ([2]; 1 mg/L, Replicate 2)	Number of hatched larvae 7 days after insecticide delivery ([2]; 1 mg/L, Replicate 1)	Number of hatched larvae 7 days after insecticide delivery ([2]; 1 mg/L, Replicate 2)	inhibitory effect on the hatching of pest eggs of Tetranychus cinnabarinus (in words) [2]	further results
CC[C@H](COc1ccc(Cl)cc1Cl)OS(=O)OCCF (stereo partly drawn) [19-(R,S)]	good inhibitory effects	0.00%	0.00%	0.00%	0	0	0	39.68%	41.38%	38	34	2.08%	3.57%	47	54	0.00%	0.00%	59	67	excellent inhibitory effects	inhibitory activity on the hatching of eggs of Tetranychus urticae (in words) [3]: strong inhibitory activities; Hatching rate (%) ([3]; Replicate 1): 0.00%; Hatching rate (%) ([3]; Replicate 2): 0.00%; Number of hatched larvae 5 days after insecticide delivery ([3]; Replicate 1): 0; Number of hatched larvae 5 days after insecticide delivery ([3]; Replicate 2): 0
CC[C@@H](COc1ccc(Cl)cc1Cl)OS(=O)OCCF (stereo partly drawn) [19-(S,R)]	good inhibitory effects	0.00%	0.00%	0.00%	0	0	0	43.55%	45.61%	35	31	5.13%	5.26%	74	54	0.00%	0.00%	60	68	excellent inhibitory effects	inhibitory activity on the hatching of eggs of Tetranychus urticae (in words) [3]: strong inhibitory activities; Hatching rate (%) ([3]; Replicate 1): 0.00%; Hatching rate (%) ([3]; Replicate 2): 0.00%; Number of hatched larvae 5 days after insecticide delivery ([3]; Replicate 1): 0; Number of hatched larvae 5 days after insecticide delivery ([3]; Replicate 2): 0
CCC(COc1ccc(Cl)cc1Cl)OS(=O)OCCF [19-(S,S)]								65.52%	69.86%	20	22	20.90%	21.31%	53	48	15.25%	14.29%	50	54		Hatching rate (%), Replicate 1 ([1]; listed as 19-(S, S)): 10.08%; Hatching rate (%), Replicate 2 ([1]; listed as 19-(S, S)): 9.90%; Hatching rate (%), Replicate 3 ([1]; listed as 19-(S, S)): 10.47%; Number of hatched larvae 5 days after insecticide delivery, Replicate 1 ([1]; listed as 19-(S, S)): 12; Number of hatched larvae 5 days after insecticide delivery, Replicate 2 ([1]; listed as 19-(S, S)): 10; Number of hatched larvae 5 days after insecticide delivery, Replicate 3 ([1]; listed as 19-(S, S)): 9; Hatching rate (%) [3, 4]: 17.48%; Hatching rate (%) [3, 5]: 14.74%; Number of hatched larvae 5 days after insecticide delivery [3, 4]: 18; Number of hatched larvae 5 days after insecticide delivery [3, 5]: 14
CCC(COS(=O)OCCF)Oc1ccc(Cl)cc1Cl [19′-(R,R)]	good inhibitory effects	0.00%	0.00%	0.00%	0	0	0	45.07%	44.90%	39	27	5.77%	4.48%	49	64	0.00%	0.00%	57	69	excellent inhibitory effects	inhibitory activity on the hatching of eggs of Tetranychus urticae (in words) [3]: strong inhibitory activities; Hatching rate (%) [3, 6]: 0.00%; Hatching rate (%) [3, 7]: 0.00%; Number of hatched larvae 5 days after insecticide delivery [3, 6]: 0; Number of hatched larvae 5 days after insecticide delivery [3, 7]: 0
CC[C@H](COS(=O)OCCF)Oc1ccc(Cl)cc1Cl (stereo partly drawn) [19′-(R,S)]		10.43%	10.42%	9.57%	12	10	9	70.31%	71.43%	19	20	46.48%	44.93%	38	38	6.00%	6.45%	47	58		Hatching rate (%) ([3]; Replicate 1): 12.66%; Hatching rate (%) ([3]; Replicate 2): 13.25%; Number of hatched larvae 5 days after insecticide delivery ([3]; Replicate 1): 10; Number of hatched larvae 5 days after insecticide delivery ([3]; Replicate 2): 11
CC[C@@H](COS(=O)OCCF)Oc1ccc(Cl)cc1Cl (stereo partly drawn) [19′-(S,R)]								68.49%	69.23%	23	20	35.09%	32.79%	37	41	0.00%	1.85%	68	53		Hatching rate (%), Replicate 1 ([1]; listed as 19′-(S, R)): 9.57%; Hatching rate (%), Replicate 2 ([1]; listed as 19′-(S, R)): 10.28%; Hatching rate (%), Replicate 3 ([1]; listed as 19′-(S, R)): 10.08%; Number of hatched larvae 5 days after insecticide delivery, Replicate 1 ([1]; listed as 19′-(S, R)): 9; Number of hatched larvae 5 days after insecticide delivery, Replicate 2 ([1]; listed as 19′-(S, R)): 11; Number of hatched larvae 5 days after insecticide delivery, Replicate 3 ([1]; listed as 19′-(S, R)): 12; Hatching rate (%) [3, 8]: 10.81%; Hatching rate (%) [3, 9]: 11.49%; Number of hatched larvae 5 days after insecticide delivery [3, 8]: 12; Number of hatched larvae 5 days after insecticide delivery [3, 9]: 10
